The text below walks through data of ChEMBL document CHEMBL1201862, “PubChem BioAssay data set” (2004).

Molecules are shown by their SMILES. Active and inactive are the calls of the source. Where only a bound is given, the exact number is not on record here.

Common to all, as to format: functional
The target of assay [1] is Dual specificity mitogen-activated protein kinase kinase 1 (Homo sapiens, UniProt Q02750). Briefly: Navigating the Kinome. Panel member name: MAP2K1.
Assay [2] has as its target Serine/threonine-protein kinase TBK1 (Homo sapiens, UniProt Q9UHD2). Description: Navigating the Kinome. Panel member name: TBK1.
Assay [3] addresses Serine/threonine-protein kinase PAK 4 (Homo sapiens, UniProt O96013).
Assay [4] has as its target T1, Tyrosine-protein kinase JAK3 (Homo sapiens, UniProt P52333).
T1 sequence (P52333 whole entry): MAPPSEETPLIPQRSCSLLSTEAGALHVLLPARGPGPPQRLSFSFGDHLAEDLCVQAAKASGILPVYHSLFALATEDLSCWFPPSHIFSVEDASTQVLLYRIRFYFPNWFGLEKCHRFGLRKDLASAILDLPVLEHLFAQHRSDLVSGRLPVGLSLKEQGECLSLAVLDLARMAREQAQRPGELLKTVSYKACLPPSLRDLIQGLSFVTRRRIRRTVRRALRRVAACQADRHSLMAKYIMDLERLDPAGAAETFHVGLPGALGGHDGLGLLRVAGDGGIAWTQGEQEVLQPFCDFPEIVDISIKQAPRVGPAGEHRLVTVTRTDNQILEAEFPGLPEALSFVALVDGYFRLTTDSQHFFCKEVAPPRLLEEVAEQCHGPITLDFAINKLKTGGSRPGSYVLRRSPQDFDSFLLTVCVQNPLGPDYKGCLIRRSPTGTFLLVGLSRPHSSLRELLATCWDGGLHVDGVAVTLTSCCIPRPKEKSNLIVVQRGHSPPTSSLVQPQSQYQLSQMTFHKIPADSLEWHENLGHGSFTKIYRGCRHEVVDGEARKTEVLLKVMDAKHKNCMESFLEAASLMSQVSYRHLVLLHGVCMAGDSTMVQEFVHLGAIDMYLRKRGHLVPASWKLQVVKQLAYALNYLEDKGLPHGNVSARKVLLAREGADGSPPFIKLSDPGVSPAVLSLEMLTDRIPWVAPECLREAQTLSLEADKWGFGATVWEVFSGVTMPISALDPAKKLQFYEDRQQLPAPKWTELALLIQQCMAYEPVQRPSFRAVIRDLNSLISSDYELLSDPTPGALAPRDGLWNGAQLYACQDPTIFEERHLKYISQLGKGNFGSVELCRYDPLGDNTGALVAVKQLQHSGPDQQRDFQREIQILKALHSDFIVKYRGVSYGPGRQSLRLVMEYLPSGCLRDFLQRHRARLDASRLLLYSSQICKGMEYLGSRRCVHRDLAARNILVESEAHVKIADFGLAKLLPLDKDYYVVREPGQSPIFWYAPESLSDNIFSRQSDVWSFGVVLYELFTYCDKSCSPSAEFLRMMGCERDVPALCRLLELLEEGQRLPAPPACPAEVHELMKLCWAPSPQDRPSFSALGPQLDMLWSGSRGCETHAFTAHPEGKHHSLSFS

Assay [5] concerns the target Serine/threonine-protein kinase TAO1 (Homo sapiens, UniProt Q7L7X3).
Assay [6] concerns the target Glycogen synthase kinase-3 alpha (Homo sapiens, UniProt P49840).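 Further: GSK3A result taken from a broad kinome-wide kinase panel.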
Assay [7] has as its target Mitogen-activated protein kinase kinase kinase kinase 2 (Homo sapiens, UniProt Q12851).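 Further: measured as one member of a kinome-wide kinase panel, with MAP4K2 as the panel entry.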
The next assay deals with Activated CDC42 kinase 1 (Homo sapiens, UniProt Q07912). Briefly: Navigating the Kinome. Panel member name: ACK1.
Assay [8] concerns the target Receptor-type tyrosine-protein kinase FLT3 (Homo sapiens, UniProt P36888).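 Further: FLT3 was tested as one member of a kinome-wide kinase panel.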
In assay [9] the target is Vascular endothelial growth factor receptor 2 (Homo sapiens, UniProt P35968).
The target in assay [10] is Leucine-rich repeat serine/threonine-protein kinase 2 (Homo sapiens, UniProt Q5S007).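 Further: value from a broad kinome-wide panel profiling study in which LRRK2 was one of the kinases tested.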
For assay [11], the target named is Serine/threonine-protein kinase Nek2 (Homo sapiens, UniProt P51955).
Assay [12] deals with Cyclin-dependent kinase 9 (Homo sapiens, UniProt P50750).
Assay [13] concerns the target Macrophage-stimulating protein receptor (Homo sapiens, UniProt Q04912). Description: Navigating the Kinome. Panel member name: MST1R.
Assay [14] deals with T2, Sentrin-specific protease 6 (Homo sapiens, UniProt Q9GZR1).
T2 sequence (Q9GZR1 whole entry): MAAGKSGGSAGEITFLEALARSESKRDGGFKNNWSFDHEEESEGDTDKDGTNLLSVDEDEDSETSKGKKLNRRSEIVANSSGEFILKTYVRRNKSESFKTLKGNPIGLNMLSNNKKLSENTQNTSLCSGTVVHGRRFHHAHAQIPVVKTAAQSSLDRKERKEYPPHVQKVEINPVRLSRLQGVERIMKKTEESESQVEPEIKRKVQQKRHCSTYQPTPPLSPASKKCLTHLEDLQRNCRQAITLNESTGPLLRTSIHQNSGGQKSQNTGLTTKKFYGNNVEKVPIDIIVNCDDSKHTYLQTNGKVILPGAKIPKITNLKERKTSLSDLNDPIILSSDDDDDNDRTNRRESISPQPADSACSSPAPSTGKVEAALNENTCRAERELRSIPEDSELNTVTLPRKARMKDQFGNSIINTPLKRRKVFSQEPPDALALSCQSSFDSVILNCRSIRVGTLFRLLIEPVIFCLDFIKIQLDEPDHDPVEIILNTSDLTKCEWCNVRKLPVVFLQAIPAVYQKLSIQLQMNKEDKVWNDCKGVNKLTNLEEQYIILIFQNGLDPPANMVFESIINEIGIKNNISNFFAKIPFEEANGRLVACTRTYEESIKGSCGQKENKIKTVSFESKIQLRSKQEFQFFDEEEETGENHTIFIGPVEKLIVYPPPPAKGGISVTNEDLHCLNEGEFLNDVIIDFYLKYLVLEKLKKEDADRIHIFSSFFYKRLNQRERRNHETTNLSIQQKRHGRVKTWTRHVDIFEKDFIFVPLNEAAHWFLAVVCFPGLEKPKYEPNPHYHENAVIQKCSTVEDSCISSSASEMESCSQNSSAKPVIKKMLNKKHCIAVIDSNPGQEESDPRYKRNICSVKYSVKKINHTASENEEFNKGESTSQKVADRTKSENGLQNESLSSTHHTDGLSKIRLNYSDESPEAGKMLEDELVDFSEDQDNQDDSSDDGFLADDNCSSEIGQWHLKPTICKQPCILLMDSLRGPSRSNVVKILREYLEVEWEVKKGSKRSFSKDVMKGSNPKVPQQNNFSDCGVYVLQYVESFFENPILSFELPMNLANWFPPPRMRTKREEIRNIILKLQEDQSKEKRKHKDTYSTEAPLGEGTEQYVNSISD
Briefly: SAR Analysis of small molecule inhibitors of Sentrin-specific protease 6 (SENP6) using a Luminescent assay. [Related pubchem assays (depositor defined):AID2582, AID2599].

Mitogen-activated protein kinase kinase kinase kinase 2, sequence (Q12851 whole entry): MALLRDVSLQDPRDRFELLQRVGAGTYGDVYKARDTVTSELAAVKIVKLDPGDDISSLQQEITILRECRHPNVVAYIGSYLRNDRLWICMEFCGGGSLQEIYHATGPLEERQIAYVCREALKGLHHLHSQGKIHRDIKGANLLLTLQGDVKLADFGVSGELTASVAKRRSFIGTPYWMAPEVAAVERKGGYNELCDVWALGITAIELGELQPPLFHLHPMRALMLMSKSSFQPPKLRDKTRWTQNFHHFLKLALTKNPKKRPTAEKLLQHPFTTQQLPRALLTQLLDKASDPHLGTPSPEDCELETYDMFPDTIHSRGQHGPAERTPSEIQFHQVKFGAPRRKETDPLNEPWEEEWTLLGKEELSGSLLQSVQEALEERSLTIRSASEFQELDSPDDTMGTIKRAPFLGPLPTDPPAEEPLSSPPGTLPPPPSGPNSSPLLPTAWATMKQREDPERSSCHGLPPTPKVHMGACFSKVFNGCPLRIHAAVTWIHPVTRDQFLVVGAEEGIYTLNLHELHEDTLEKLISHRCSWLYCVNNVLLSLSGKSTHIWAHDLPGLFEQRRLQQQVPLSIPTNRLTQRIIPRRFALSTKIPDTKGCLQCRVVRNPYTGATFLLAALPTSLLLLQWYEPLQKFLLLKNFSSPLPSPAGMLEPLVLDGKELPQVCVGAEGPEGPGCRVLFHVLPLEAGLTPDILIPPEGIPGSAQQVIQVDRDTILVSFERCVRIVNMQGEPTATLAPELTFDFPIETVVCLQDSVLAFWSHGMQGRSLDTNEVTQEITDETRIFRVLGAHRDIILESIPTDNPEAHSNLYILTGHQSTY
Leucine-rich repeat serine/threonine-protein kinase 2, sequence (Q5S007 whole entry): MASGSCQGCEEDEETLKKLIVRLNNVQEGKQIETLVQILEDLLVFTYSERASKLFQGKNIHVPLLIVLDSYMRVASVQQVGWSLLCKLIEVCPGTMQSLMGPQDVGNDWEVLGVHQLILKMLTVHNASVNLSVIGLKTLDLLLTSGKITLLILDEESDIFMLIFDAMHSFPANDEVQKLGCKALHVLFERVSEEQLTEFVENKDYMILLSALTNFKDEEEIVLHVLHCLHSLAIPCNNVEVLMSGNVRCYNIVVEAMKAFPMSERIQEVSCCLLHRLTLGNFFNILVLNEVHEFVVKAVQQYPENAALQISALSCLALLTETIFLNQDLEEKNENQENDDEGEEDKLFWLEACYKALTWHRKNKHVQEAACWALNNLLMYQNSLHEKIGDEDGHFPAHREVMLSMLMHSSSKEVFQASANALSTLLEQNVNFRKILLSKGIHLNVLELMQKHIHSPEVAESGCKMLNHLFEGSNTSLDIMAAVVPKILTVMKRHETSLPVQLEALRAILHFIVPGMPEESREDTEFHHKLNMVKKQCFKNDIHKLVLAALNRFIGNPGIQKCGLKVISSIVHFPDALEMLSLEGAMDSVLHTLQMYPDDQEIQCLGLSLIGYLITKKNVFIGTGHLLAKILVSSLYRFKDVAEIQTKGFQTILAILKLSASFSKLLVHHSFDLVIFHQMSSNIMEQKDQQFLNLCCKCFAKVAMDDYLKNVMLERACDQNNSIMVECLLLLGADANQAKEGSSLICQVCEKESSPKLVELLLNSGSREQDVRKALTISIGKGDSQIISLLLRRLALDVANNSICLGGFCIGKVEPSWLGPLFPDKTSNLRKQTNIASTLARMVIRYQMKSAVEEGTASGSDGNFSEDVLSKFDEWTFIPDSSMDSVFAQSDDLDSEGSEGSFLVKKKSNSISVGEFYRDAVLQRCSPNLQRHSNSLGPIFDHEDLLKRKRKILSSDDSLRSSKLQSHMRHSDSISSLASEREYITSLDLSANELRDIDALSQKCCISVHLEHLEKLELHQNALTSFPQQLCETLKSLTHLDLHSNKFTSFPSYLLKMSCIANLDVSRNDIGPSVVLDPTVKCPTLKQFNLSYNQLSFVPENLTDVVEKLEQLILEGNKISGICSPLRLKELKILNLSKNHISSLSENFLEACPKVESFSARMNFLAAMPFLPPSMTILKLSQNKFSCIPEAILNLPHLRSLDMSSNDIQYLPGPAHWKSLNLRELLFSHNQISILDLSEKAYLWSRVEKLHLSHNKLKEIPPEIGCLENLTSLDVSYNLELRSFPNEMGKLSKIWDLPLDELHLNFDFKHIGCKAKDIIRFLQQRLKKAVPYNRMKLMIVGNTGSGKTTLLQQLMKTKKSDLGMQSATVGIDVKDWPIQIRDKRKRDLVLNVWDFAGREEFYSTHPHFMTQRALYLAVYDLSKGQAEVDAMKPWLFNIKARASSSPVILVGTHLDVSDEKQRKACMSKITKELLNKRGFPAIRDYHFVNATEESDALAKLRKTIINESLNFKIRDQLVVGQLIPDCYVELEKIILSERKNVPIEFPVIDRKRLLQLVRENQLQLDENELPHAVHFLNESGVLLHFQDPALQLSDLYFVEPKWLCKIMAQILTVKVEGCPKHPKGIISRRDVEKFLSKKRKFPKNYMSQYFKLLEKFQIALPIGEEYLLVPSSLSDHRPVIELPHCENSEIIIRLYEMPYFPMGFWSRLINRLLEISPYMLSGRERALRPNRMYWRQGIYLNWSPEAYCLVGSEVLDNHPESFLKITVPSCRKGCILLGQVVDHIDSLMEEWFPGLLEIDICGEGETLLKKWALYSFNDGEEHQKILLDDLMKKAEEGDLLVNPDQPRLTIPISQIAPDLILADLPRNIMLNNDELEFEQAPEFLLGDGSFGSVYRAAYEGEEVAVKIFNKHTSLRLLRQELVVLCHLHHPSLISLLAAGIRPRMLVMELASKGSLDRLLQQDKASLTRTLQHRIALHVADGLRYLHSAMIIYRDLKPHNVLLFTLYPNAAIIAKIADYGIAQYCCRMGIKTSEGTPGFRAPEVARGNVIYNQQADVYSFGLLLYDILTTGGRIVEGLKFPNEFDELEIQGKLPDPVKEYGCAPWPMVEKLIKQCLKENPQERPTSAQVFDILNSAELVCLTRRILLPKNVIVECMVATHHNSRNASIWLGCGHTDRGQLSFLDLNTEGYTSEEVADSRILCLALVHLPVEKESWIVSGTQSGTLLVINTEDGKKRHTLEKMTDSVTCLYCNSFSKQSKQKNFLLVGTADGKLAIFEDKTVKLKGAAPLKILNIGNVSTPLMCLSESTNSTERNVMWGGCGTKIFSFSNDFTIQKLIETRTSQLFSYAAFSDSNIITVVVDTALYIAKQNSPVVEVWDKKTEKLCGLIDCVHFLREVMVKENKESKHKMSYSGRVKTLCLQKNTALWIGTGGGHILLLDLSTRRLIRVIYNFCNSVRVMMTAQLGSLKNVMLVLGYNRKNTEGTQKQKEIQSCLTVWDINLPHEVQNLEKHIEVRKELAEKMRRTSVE
Receptor-type tyrosine-protein kinase FLT3, sequence (P36888 whole entry): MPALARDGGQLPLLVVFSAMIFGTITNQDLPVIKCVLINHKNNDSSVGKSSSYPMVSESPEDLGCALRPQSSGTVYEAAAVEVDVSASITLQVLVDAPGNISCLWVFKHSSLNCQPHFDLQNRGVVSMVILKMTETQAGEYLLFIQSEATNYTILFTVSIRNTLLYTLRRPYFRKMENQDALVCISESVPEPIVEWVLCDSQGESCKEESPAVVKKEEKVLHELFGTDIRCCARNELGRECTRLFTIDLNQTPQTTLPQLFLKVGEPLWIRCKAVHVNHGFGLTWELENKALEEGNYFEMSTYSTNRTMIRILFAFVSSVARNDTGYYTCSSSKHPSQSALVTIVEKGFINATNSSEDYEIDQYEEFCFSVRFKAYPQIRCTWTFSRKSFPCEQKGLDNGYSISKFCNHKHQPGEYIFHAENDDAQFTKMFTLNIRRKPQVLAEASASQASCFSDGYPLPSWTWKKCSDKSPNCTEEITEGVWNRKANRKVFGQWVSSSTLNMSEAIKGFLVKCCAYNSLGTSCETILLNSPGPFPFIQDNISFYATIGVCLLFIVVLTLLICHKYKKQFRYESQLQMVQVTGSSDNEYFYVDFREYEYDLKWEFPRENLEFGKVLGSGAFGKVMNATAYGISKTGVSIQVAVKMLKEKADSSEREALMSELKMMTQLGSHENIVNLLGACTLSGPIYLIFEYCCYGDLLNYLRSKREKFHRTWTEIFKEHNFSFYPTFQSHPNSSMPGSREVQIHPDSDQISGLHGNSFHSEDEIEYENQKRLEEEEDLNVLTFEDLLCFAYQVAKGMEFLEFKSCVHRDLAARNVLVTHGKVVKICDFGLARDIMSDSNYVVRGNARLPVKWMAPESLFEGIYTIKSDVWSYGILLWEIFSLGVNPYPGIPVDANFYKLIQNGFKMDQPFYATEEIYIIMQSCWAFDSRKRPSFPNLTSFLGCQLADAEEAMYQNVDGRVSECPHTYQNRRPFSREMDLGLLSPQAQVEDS
Dual specificity mitogen-activated protein kinase kinase 1, sequence (Q02750 whole entry): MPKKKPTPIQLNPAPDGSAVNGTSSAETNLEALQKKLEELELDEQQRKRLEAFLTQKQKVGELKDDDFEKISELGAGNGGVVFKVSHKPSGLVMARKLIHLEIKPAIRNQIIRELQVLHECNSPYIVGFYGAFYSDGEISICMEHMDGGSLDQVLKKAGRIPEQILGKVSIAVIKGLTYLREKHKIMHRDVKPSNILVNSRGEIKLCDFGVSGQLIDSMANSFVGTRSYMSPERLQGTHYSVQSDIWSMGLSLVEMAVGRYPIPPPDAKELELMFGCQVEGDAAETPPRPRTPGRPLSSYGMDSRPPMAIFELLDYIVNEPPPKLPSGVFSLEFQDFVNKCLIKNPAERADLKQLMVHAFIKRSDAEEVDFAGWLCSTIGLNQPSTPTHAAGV
Cyclin-dependent kinase 9, sequence (P50750 whole entry): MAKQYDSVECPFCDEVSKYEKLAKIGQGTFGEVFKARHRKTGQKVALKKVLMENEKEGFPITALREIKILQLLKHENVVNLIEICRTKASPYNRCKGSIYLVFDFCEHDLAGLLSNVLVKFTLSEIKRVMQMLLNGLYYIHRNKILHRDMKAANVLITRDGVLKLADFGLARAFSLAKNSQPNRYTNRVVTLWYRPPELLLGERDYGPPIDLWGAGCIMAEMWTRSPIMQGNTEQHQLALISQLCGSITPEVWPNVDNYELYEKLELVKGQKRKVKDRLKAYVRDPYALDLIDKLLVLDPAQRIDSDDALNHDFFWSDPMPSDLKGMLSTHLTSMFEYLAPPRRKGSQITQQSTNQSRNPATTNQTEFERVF

With `COc1cccc(C(C)NC(=O)c2ccc(-c3ccncc3)s2)c1` (stereo not given), the Ki was > 3.16 µM (inactive) in [1]; > 3.16 µM (inactive) in [2]; > 5.01 µM (inactive) in assay [3]; > 5.01 µM (inactive) in assay [4]; > 6.31 µM (inactive) in [5]; 1 µM (active) in [6]. Further, the Ki in assay [7] is > 2.51 µM (inactive); at Activated CDC42 kinase 1, > 3.98 µM (inactive); in assay [8], > 3.16 µM (inactive); in [9], > 2.51 µM (inactive); in assay [10] it was > 2.51 µM (inactive); in [11], > 3.16 µM (inactive). Also, the Ki was > 1.58 µM (inactive) in assay [12] and > 3.98 µM (inactive) in [13].

Consider `Cc1ccc(NC(=O)COc2cccc(/C=C3\SC(=S)N(CCC(=O)O)C3=O)c2)cc1Cl`, for which the IC50 in [14] is 5.06 µM (active).
